Measured values from PubChem BioAssay (NCI).
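96-well plates; 48 h exposure; 5 concentrations. Endpoints by linear interpolation between flanking doses. Not reached: highest tested concentration assigned. GI50: concentration for 50% inhibition of growth. Definition used: TGI = concentration required for complete inhibition of growth.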

How the values were obtained:
Assay in all cases: DTP human tumour cell line panel, 48 h; in the data active = GI50 below about 0.43 µM; inactive = the rest
[1] = system: HT29 colon
[2] = system: OVCAR-5 ovarian
[3] = system: UO-31 renal
[4] = system: NCI/ADR-RES ovarian
[5] = system: RPMI-8226 leukemia
[6] = system: SNB-75 CNS
[7] = system: PC-3 prostate
[8] = system: U251 CNS
[9] = system: SK-MEL-2 melanoma
[10] = system: HCT-15 colon
[11] = system: SF-539 CNS
[12] = system: 786-0 renal
[13] = system: HOP-92 NSCLC
[14] = system: NCI-H522 lung
[15] = system: M14 melanoma
[16] = system: EKVX NSCLC
[17] = system: NCI-H226 lung
[18] = system: A549 NSCLC
[19] = system: HOP-62 NSCLC
[20] = system: OVCAR-4 ovarian
[21] = system: SF-295 CNS
[22] = system: MOLT-4 leukemia
[23] = system: BT-549 breast
[24] = system: OVCAR-8 ovarian
[25] = system: T-47D breast
[26] = system: ACHN renal
[27] = system: NCI-H23 lung
[28] = system: CAKI-1 renal
[29] = system: MALME-3M melanoma
[30] = system: SNB-19 CNS
[31] = system: DU-145 prostate
[32] = system: RXF 393 renal
[33] = system: MCF7 breast
[34] = system: TK-10 renal
[35] = system: KM12 colon
[36] = system: NCI-H460 lung
[37] = system: HCC-2998 colon
[38] = system: SK-MEL-5 melanoma
[39] = system: SN12C renal
[40] = system: OVCAR-3 ovarian
[41] = system: MDA-MB-435
[42] = system: COLO 205 colon
[43] = system: CCRF-CEM leukemia
[44] = system: HL-60(TB) leukemia
[45] = system: SR leukemia
[46] = system: SF-268 CNS
[47] = system: IGROV1 ovarian
[48] = system: UACC-257 melanoma
[49] = system: SK-MEL-28 melanoma
[50] = system: HS 578T breast
[51] = system: K-562 leukemia
[52] = system: LOX IMVI melanoma
[53] = system: MDA-MB-231 breast
[54] = system: A498 renal
[55] = system: HCT-116 colon
[56] = system: UACC-62 melanoma
[57] = system: SK-OV-3 ovarian
[58] = system: SW-620 colon

CC(=O)Nc1cccc(C#Cc2cncnc2Nc2ccc(OCc3cccc(F)c3)c(Cl)c2)n1
inactive: GI50 [1] 17.6 µM | GI50 [2] > 23.4 µM | GI50 [3] 22.5 µM | GI50 [4] 20.7 µM | GI50 [5] > 25 µM | GI50 [6] 11.9 µM | GI50 [7] 9.4 µM | GI50 [8] 7.14 µM | GI50 [9] 10.4 µM | GI50 [10] > 25 µM | GI50 [11] > 23.3 µM | GI50 [12] > 22.5 µM | GI50 [13] 3.61 µM | GI50 [14] 8.25 µM | GI50 [15] 16.1 µM | GI50 [16] 0.475 µM | GI50 [17] > 17.8 µM | GI50 [18] 6.81 µM | GI50 [19] 10.3 µM | GI50 [20] > 22.7 µM | GI50 [21] 13.7 µM | GI50 [22] > 25 µM | GI50 [23] > 25 µM | GI50 [24] 15.4 µM | GI50 [25] 2.57 µM | GI50 [26] 2.87 µM | GI50 [27] > 25 µM | GI50 [28] 2.28 µM | GI50 [29] 9.55 µM | GI50 [30] > 21.7 µM | GI50 [31] 8.62 µM | GI50 [32] 20.8 µM | GI50 [33] > 25 µM | GI50 [35] > 25 µM | GI50 [36] 11.9 µM | GI50 [37] > 25 µM | GI50 [38] > 18.8 µM | GI50 [39] > 25 µM | GI50 [40] > 21.6 µM | GI50 [41] > 20.4 µM | GI50 [42] > 22.2 µM | GI50 [43] > 25 µM | GI50 [44] > 25 µM | GI50 [45] > 25 µM | GI50 [46] > 18.8 µM | GI50 [47] 4.2 µM | GI50 [48] > 21.5 µM | GI50 [49] 14.8 µM | GI50 [50] 24.9 µM | GI50 [51] > 25 µM | GI50 [52] > 18.5 µM | GI50 [53] 6.04 µM | GI50 [54] 1.22 µM | GI50 [55] 11.6 µM | GI50 [56] 24.4 µM | GI50 [57] 1.06 µM | GI50 [58] 23.1 µM
> 17.6 µM: TGI [34]
18.2 µM: TGI [13]
> 25 µM: TGI [1] | TGI [2] | TGI [3] | TGI [4] | TGI [5] | TGI [6] | TGI [7] | TGI [9] | TGI [10] | TGI [11] | TGI [12] | TGI [14] | TGI [15] | TGI [16] | TGI [17] | TGI [18] | TGI [19] | TGI [20] | TGI [21] | TGI [22] | TGI [23] | TGI [24] | TGI [25] | TGI [26] | TGI [27] | TGI [28] | TGI [29] | TGI [30] | TGI [31] | TGI [32] | TGI [33] | TGI [35] | TGI [36] | TGI [37] | TGI [38] | TGI [39] | TGI [40] | TGI [41] | TGI [42] | TGI [43] | TGI [44] | TGI [45] | TGI [46] | TGI [47] | TGI [48] | TGI [49] | TGI [50] | TGI [51] | TGI [52] | TGI [53] | TGI [54] | TGI [55] | TGI [56] | TGI [57] | TGI [58]
> 23.4 µM: TGI [8]
active: GI50 [34] 0.412 µM
